From US11542492B2 (Celgene CAR LLC, priority 2009, dated 2023)

What was measured:
[1] = target: T1, HCV NS3/4A 1b protease enzyme (wild type) (Hepatitis C virus genotype 1b, UniProt P26663); experiment: HCV protease FRET assay (IC50_APP), wild type NS3/4A 1b; assay type: biochemical
T1 construct: 10× stocks of NS3/4A protease enzyme from Bioenza (Mountain View, Calif.); purchased Bioenza
How it was run: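 Wild-type NS3/4A 1b protease with serially diluted compounds (from 50% DMSO stocks); reaction started at once with FRET substrate and followed 60-90 min at ex485/em520. Initial velocities (0 to 15+ min) normalised to no-inhibitor and no-enzyme controls; apparent IC50 from variable-slope log[inhibitor]-response fit.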

[2] = target: T2, HCV protease C159S mutant (Hepatitis C virus genotype 1b, UniProt P26663, C1185S); experiment: MALDI MS of intact HCV protease C159S incubated with compound; assay type: binding; conditions: 1 hr, 10× fold excess
T2 construct: The single-chain proteolytic domain (NS4A21-32-GSGS-NS33-631) was cloned into pET-14b; His tag (own knowledge of vector pET-14b); made in house; host or cells: Escherichia coli BL21
Procedure: (§1) Intact HCV (protease) 1bWT, C159S, and C159S/K136A were incubated for 1 hr at a 10× fold excess of XVI-26 to protein. 3 μl aliquots of the samples were diluted with 10 μl of 0.1% TFA prior to micro C4 ZipTipping directly onto the MALDI target using Sinapinic acid as the desorption matrix (10 mg/mL in 0.1% TFA:Acetonitrile 50:50).

HCV NS3 protease WT 1b = target: T3, HCV NS3 protease WT 1b (Hepatitis C virus genotype 1b, UniProt P26663); experiment: MALDI MS of intact HCV protease 1b WT incubated with compound; assay type: binding
T3 construct: The single-chain proteolytic domain (NS4A21-32-GSGS-NS33-631) was cloned into pET-14b; His tag (own knowledge of vector pET-14b); made in house; host or cells: Escherichia coli BL21
Procedure: as §1, with “1bWT was” for “1bWT, C159S, and C159S/K136A were”, “ul” for “μl”, “50:50). […] Due to likely protein misfolding during protein purification, a small portion of the misfolded protein was not modified.” for “50:50).”
In order to determine whether the modification of the protein occurred at lysine, the pH from the above experiment was increased from 7.4 to 10.0. Because the compound lysine adduct would be an amide any increase in pH would have minimal effect on the modified protein. If however, the modification occurred at cysteine the resultant thioester bond would be unstable and the compound would hydrolyze off the protein.
as §1
as §1, with “WT1b was” for “1bWT, C159S, and C159S/K136A were”, “XVI-1 (mw=782.87)” for “XVI-26”, “50:50). […] Due to some protein misfolding during the purification of the protein, the unfolded portion of the protein can not react with XVI-1.” for “50:50).”

[3] = target: T4, HCV C159S/K136A double mutant (Hepatitis C virus genotype 1b, UniProt P26663, C1185S/K1162A); experiment: MALDI MS of intact HCV protease C159S/K136A double mutant; assay type: binding; conditions: 1 hr, 10× fold excess
T4 construct: The single-chain proteolytic domain (NS4A21-32-GSGS-NS33-631) was cloned into pET-14b; His tag (own knowledge of vector pET-14b); made in house; host or cells: Escherichia coli BL21
Procedure: as §1

[4] = test system: NS3/4A self-cleavage activity in Huh-7 cells; experiment: Prolonged duration of action (washout), NS3 self-cleavage in transfected Huh-7 cells; assay type: cell-based; conditions: FIG. 11
Procedure: Parental Huh-7 cells were plated at a density of 1.75×10^6 cells per 100 mm dish in media with 10% FBS. The following day, cells were transfected in OptiMEM using 28 ug of plasmid and 112 ul of Lipfectamine 2000 (Invitrogen), according to manufacturer's instructions. After 4 hours incubation with the transfection complex, the media was changed to Replicon Assay Medium (RPMI supplemented with 5% FBS, 1× non-essential amino acids and pen/strep). The next morning, the cells were trypsinized, counted and replated in Replicon Media at a density of 20,000 cells/well of a 12 well plate (4 wells per genotype). Cells were allowed to adhere to the plate, then the media was removed and replaced with 1 ml media containing XVI-26, (3 wells per compound) and 0.02% DMSO and returned to the incubator overnight. Sixteen hours later 1 treated well from each genotype (0 hr sample) and 1 untreated well were washed with PBS, then lysed and scraped into 30 ul of Cell Extraction Buffer (Biosource, Camarillo, Calif.) plus Complete Protease Inhibitor (Roche, Indianapolis, Ind.). The remaining wells were rinsed 2× with PBS then fed with Replicon Media and returned to the incubator. […] Lysates were resolved using standard immunoblotting methods and NS3 self-cleavage activity was assessed and quantified relative to untreated samples.

HCT116 = experiment: HCT116-WB assay; assay type: cell-based; conditions: Homo sapiens, HCT-116; read-out: HCT116-WB Inhibition Designation
PI3Kβ = PI3Kβ (Homo sapiens, UniProt P42338); experiment: MALDI MS of intact PI3Kβ incubated with compound; assay type: binding; conditions: 3 hr, 10× fold excess of compound to protein
Procedure: Intact PI3Kβ was incubated for 3 hr at a 10× fold access of compound to protein. 5 μL aliquots of the samples were diluted with 15 μL of 0.1% TFA prior to micro C4 ZipTipping directly onto the MALDI target using Sinapinic acid as the desorption matrix (10 mg/mL in 0.1% TFA:Acetonitrile 50:50). Spots were then analyzed via MALDI-MS. XXII-10 modified PI3Kβ 100% by 3h. XXII-8, XXII-6, XXIII-4, and XXIII-3 each provided between about 35% to about 55% modification.

Chain of PI3Kβ (P42338 whole entry): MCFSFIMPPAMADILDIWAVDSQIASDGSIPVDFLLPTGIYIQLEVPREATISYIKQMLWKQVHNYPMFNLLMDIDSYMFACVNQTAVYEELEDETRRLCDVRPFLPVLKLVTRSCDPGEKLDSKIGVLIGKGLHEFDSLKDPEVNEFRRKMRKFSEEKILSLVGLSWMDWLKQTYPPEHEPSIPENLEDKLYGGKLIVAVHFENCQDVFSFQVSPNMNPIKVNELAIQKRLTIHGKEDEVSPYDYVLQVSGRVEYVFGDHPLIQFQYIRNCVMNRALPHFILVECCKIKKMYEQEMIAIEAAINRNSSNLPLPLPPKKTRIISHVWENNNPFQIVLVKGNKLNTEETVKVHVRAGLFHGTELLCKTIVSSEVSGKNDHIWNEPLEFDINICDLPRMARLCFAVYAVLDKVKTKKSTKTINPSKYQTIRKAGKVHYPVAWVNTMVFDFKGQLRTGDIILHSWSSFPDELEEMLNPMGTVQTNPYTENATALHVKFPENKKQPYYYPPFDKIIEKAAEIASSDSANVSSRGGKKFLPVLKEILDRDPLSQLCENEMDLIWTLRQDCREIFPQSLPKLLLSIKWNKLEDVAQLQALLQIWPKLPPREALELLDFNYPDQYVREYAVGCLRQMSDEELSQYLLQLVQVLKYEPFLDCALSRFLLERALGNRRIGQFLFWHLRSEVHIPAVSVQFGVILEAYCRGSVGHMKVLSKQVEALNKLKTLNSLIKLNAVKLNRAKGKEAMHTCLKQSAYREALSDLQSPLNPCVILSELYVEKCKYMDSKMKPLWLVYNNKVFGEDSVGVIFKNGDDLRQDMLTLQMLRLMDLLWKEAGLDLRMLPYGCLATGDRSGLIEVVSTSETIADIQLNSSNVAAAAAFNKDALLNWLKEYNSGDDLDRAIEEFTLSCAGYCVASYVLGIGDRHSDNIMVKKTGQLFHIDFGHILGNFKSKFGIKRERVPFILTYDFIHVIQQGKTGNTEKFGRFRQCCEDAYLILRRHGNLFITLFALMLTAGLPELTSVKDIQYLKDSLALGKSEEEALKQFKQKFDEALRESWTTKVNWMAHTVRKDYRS
Chain of PI3Kβ (P27986 whole entry partner): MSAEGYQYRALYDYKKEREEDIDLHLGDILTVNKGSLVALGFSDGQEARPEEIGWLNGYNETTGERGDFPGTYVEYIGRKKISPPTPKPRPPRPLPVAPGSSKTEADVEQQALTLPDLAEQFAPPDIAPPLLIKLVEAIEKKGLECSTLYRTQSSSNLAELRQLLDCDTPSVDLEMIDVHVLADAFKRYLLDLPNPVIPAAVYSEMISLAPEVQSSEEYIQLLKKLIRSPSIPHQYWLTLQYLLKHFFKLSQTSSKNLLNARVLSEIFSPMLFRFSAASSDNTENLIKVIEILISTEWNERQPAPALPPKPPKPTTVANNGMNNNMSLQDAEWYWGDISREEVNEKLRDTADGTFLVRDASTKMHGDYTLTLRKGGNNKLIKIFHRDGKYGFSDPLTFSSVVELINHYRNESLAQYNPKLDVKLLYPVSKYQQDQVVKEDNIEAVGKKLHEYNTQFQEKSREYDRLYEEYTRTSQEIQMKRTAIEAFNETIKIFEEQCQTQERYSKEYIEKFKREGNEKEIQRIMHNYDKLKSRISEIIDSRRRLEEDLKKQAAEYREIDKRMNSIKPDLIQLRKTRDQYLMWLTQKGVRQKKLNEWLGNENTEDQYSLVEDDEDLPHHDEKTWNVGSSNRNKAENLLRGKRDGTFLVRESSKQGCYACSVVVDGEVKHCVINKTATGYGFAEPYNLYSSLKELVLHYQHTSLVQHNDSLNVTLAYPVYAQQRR

## C=C[C@@H]1C[C@]1(NC(=O)[C@@H]1CC(Oc2cc(-c3ccccc3)nc3cc(OC)ccc23)CN1C(=O)[C@H](CCC(=O)N1CCC1=O)NC(=O)OC(C)(C)C)C(=O)NS(=O)(=O)C1CC1 (some centres unmarked) [XVI-26]
[1]
  IC50: < 1 nM
[2]
  positive mass shift of HCV C159S: 770 Da
HCV NS3 protease WT 1b; 1 hour at pH 7.4 followed by 2 hours at pH 10
  stability of adduct at raised pH: did not come off of the protein
HCV NS3 protease WT 1b; WT 1b, 1 HR
  MS_HCVNS3_INTACT_NS3 WT 1b 1 HR: H (>50% and ≤70% modification)
[3]
  modification of HCV C159S/K136A: no modification
[4]
  duration of action after washout: prolonged duration of action

## C=CS(=O)(=O)N(C)Cc1cc2nc(-c3cccc(O)c3)nc(N3CCOCC3)c2s1 [XXII-10]
HCT116
  IC50: 100 to 1000 nM
PI3Kβ
  modification of PI3Kβ: 100%
